Results from EP0598515A1, “Method for herbicidal activity-enhancing, activity-enhanced herbicidal composition and activity-enhancing composition” (ISHIHARA SANGYO KAISHA LTD., priority 1992, dated 1994).
Several values for one entry are separate records, joined by “and”; a condition that tells them apart may be missing. Equal values may be shown once.

Test system: Crabgrass (Digitaria sanginalis L.)
Experiment: Test Example 5: pot test with kinds of vegetable oil
Format: in vivo
Details: Example 7 water dispersible granules, 0.2% by volume Frigate + 0.4% by volume vegetable oil (90 parts oil, 10 parts Geronol VO/278), 23 days after treatment, duplicate
Experimental: Crabgrass (Digitaria sanginalis L.) seeds were sown in 1/1,000,000-hectare pots filled with upland soil and arranged in a duplicate system. When the crabgrass plants grew to a 3.5- to 4.0-leaf stage, water dispersible granules obtained in Example 7 described hereinbefore was diluted with 200 liters/hectare of water containing 0.2% by volume of Frigate and 0.4% by volume of a vegetable oil which was previously prepared by mixing with a predetermined amount of Geronol VO/278 (trade name) and was applied foliarly to the plants with a small spray gun.
Twenty three days after treatment, the growth inhibition of the plants was evaluated with visual observation in the same manner as in Test Example 1 and are shown in Table 5.
In the test, a vegetable oil, a fatty acid originated therefrom and an alkylester of the fatty acid were used as the vegetable oil and which are each of mixture of 10 parts by weight of Geronol VO/278 and 90 parts by weight of the following vegetable oil, fatty acids originated from vegetable oils and alkylesters of fatty acids. • (a) corn oil • (b) fatty acid originated from corn oil (prepared by hydrolysis of corn oil) • (c) methylester of (b) • (d) methylester of fatty acid originated from cottonseed oil • (e) methylester of fatty acid originated from rapeseed oil • (f) methyl oleate (trade name: ADJ-100) • (g) butyl oleate (trial product No. 93091; produced by Takemoto Oils and Fats) TABLE 5

Structure (SMILES) | Growth Inhibition (%) of Crabgrass (Compound A 2.5 g/ha) | Growth Inhibition (%) of Crabgrass (Compound A 5 g/ha)
CCCCCCCC/C=C\CCCCCCCC(=O)OC [f, methyl oleate] | 60% | 90%
CCCCCCCC/C=C\CCCCCCCC(=O)OCCCC [g, butyl oleate] | 70% | 95% and 80%
